Reference: ChEMBL document CHEMBL1287691, “Pyrazole derivatives from azines of substituted phenacyl aryl/cyclohexyl sulfides and their antimycobacterial activity” (2010)
In brackets after ≈: the same amount, converted by molar mass.

These molecules were tested on Mycobacterium tuberculosis (assay: Antimycobacterial activity against Mycobacterium tuberculosis H37Rv at 6.25 ug/ml).
Type: functional
In the case of CC(=O)/C(=N/Nc1c(C)n[nH]c1C)C(=O)O, the inhibition at 6.25 µg/mL was 29%. For COCC(=O)/C(=N/Nc1c(C)n[nH]c1C)C(=O)OC, the inhibition at 6.25 µg/mL was 28%.

Each molecule was assayed on Mycobacterium tuberculosis (assay: Antimycobacterial activity against Mycobacterium tuberculosis H37Rv by agar dilution method).
Type: functional
In the case of Clc1ccc(S/C=C(\c2ccc3ccccc3c2)n2cc(Sc3ccc(Cl)cc3)c(-c3ccc4ccccc4c3)n2)cc1, the MIC was 6.25 µg/mL (≈ 9.89 µM). Clc1ccc(S/C=C(/c2ccc3ccccc3c2)n2cc(Sc3ccc(Cl)cc3)c(-c3ccc4ccccc4c3)n2)cc1 gave an MIC of 12.5 µg/mL (≈ 19.8 µM). For Clc1ccc(S/C=C(/c2ccc(Cl)cc2)n2cc(Sc3ccc(Cl)cc3)c(-c3ccc(Cl)cc3)n2)cc1, the MIC was 3.13 µg/mL (≈ 5.21 µM). Clc1ccc(S/C=C(/c2ccccc2)n2cc(Sc3ccc(Cl)cc3)c(-c3ccccc3)n2)cc1 showed an MIC of over 25 µg/mL. C(/SC1CCCCC1)=C(\c1ccccc1)n1cc(SC2CCCCC2)c(-c2ccccc2)n1 was tested, and the MIC was 12.5 µg/mL (≈ 26.3 µM). Cc1ccc(/C(=C/SC2CCCCC2)n2cc(SC3CCCCC3)c(-c3ccc(C)cc3)n2)cc1 gave an MIC of 6.25 µg/mL (≈ 12.4 µM). Molecule COc1ccc(/C(=C/SC2CCCCC2)n2cc(SC3CCCCC3)c(-c3ccc(OC)cc3)n2)cc1 has an MIC of 12.5 µg/mL (≈ 23.4 µM). Molecule O=[N+]([O-])c1ccc(/C(=C/SC2CCCCC2)n2cc(SC3CCCCC3)c(-c3ccc([N+](=O)[O-])cc3)n2)cc1 has an MIC of 1.56 µg/mL (≈ 2.76 µM). Clc1ccc(S/C=C(\c2ccc(Cl)cc2)n2cc(Sc3ccc(Cl)cc3)c(-c3ccc(Cl)cc3)n2)cc1 was tested, and the MIC was 1.56 µg/mL (≈ 2.6 µM). COc1ccc(/C(=C\Sc2ccc(Cl)cc2)n2cc(Sc3ccc(Cl)cc3)c(-c3ccc(OC)cc3)n2)cc1 was tested, and the MIC was 6.25 µg/mL (≈ 10.6 µM). Clc1ccc(S/C=C(\c2ccccc2)n2cc(Sc3ccc(Cl)cc3)c(-c3ccccc3)n2)cc1 was tested, and the MIC was 12.5 µg/mL (≈ 23.5 µM). Cc1ccc(/C(=C\Sc2ccc(Cl)cc2)n2cc(Sc3ccc(Cl)cc3)c(-c3ccc(C)cc3)n2)cc1 was tested, and the MIC was 6.25 µg/mL (≈ 11.2 µM). For Cc1ccc(S/C=C(\c2ccc(Cl)cc2)n2cc(Sc3ccc(C)cc3)c(-c3ccc(Cl)cc3)n2)cc1, the MIC was 12.5 µg/mL (≈ 22.3 µM). Clc1ccc(/C(=C\Sc2ccccc2)n2cc(Sc3ccccc3)c(-c3ccc(Cl)cc3)n2)cc1 was tested, and the MIC was 25 µg/mL (≈ 47 µM). C(/SC1CCCCC1)=C(/c1ccccc1)n1cc(SC2CCCCC2)c(-c2ccccc2)n1 was tested, and the MIC was 6.25 µg/mL (≈ 13.2 µM). Cc1ccc(/C(=C\SC2CCCCC2)n2cc(SC3CCCCC3)c(-c3ccc(C)cc3)n2)cc1 gave an MIC of 3.13 µg/mL (≈ 6.23 µM). Molecule COc1ccc(/C(=C\SC2CCCCC2)n2cc(SC3CCCCC3)c(-c3ccc(OC)cc3)n2)cc1 has an MIC of 3.13 µg/mL (≈ 5.85 µM). Molecule Clc1ccc(/C(=C\SC2CCCCC2)n2cc(SC3CCCCC3)c(-c3ccc(Cl)cc3)n2)cc1 has an MIC of 1.56 µg/mL (≈ 2.87 µM). O=[N+]([O-])c1ccc(/C(=C\SC2CCCCC2)n2cc(SC3CCCCC3)c(-c3ccc([N+](=O)[O-])cc3)n2)cc1 gave an MIC of 0.78 µg/mL (≈ 1.38 µM). Clc1ccc(/C(=C/Sc2ccccc2)n2cc(Sc3ccccc3)c(-c3ccc(Cl)cc3)n2)cc1 gave an MIC of over 25 µg/mL. Cc1ccc(S/C=C(/c2ccc(Cl)cc2)n2cc(Sc3ccc(C)cc3)c(-c3ccc(Cl)cc3)n2)cc1 gave an MIC of 12.5 µg/mL (≈ 22.3 µM). CC[C@@H](CO)NCCN[C@@H](CC)CO [ETHAMBUTOL] was tested, and the MIC was 1.56 µg/mL (≈ 7.64 µM). With NNC(=O)c1ccncc1 [ISONIAZID] the MIC was 0.05 µg/mL (≈ 0.365 µM). Molecule NC(=O)c1cnccn1 [PYRAZINAMIDE] has an MIC of 6.25 µg/mL (≈ 50.8 µM).
